Experimental data: US20240216410A1, “METHODS AND COMPOSITIONS FOR TREATING CANCER THERAPY-INDUCED NEUTROPENIC FEVER AND/OR GVHD” (BOARD OF REGENTS, THE UNIVERSITY OF TEXAS SYSTEM, priority 2021, published 2024)
Entries after “also recorded” stand apart in the source; their conditions may differ.

How the values were obtained:
[1] = tested on: murine BT GH2 β-galactosidase, GH33 sialidase, GH29 α-L-fucosidase; test: RNA sequencing of stool from allo-HSCT mice: BT PUL expression; assay type: in vivo, Bacteroides thetaiotaomicron; conditions: day 18, allo-HSCT mice with vs without meropenem
Protocol: Thus, in some cases, meropenem treatment during GVHD may lead to alterations in the behavior of BT. To evaluate this further, RNA sequencing of stool samples from allo-HSCT mice without and with meropenem treatment was performed. Also examined was the genome of mouse-derived BT isolate MDA-JAX BT001 (FIG. 23), and open reading frames (ORF) were identified, which were then assigned to polysaccharide utilization loci (PUL) using the Polysaccharide-Utilization Loci DataBase (PULDB) (41).
RNA sequencing and analysis. Approximately 30 mg of stool was freshly collected in 700 μL of ice cold QIAZOL® containing 200 μL of 0.1 mm diameter Zirconia Silica beads (11079101z, BioSpec). Samples were bead beaten twice for 2 min with a 30 second interval recovery. Samples were then centrifuged at 12,000 g for 1 min and the supernatant was collected for RNA isolation using the RNeasy mini kit (74104, QIAGEN®). […] RNA quantity and quality was determined using an Agilent 4200 TapeStation system (Agilent). […] The cDNA libraries were sequenced on the […]® MISEQ™ system to produce 1×300 bp single-end reads, resulting in ˜1 million reads per sample. […] The total reads of mouse stool samples were 950923±113406 (mean±standard deviation). […] Aligned mRNA expression changes were calculated using the Mann-Whitney U test in R software version 3.6.0 via RStudio version 1.2.1335. […]

[2] = Murine GVHD model: fecal SCFAs by IC-MS; assay type: in vivo; conditions: day 18; meropenem-treated allo-HSCT mice
Source text: In some cases, meropenem-induced intestinal dysbiosis contributes to aggravated GVHD via loss of beneficial commensal bacteria. In some embodiments, meropenem-treated allogeneic mice show a loss of Clostridia abundance and a reduction in SCFA levels, including butyrate. On day 7, or 4 days following the start of meropenem treatment, Clostridia were depleted in meropenem-treated mice and remained so at 6 days after stopping 5 meropenem (FIG. 20A).
Short Chain Fatty Acids profiling by ion chromatography-mass spectrometry (IC-MS). To determine the relative abundance of short chain fatty acids in mouse feces samples, extracts were prepared and analyzed by ultra-high resolution mass spectrometry (HRMS). Fecal pellets were homogenized with a […]® Tissue Homogenizer. Metabolites were extracted using 1 mL ice-cold 0.1% Ammonium hydroxide in 80/20 (v/v) methanol/water. Extracts were centrifuged at 17,000 g for 5 min at 4° C., and supernatants were transferred to clean tubes, followed by evaporation to dryness under nitrogen. Dried extracts were reconstituted in deionized water, and 5 μL was injected for analysis by IC-MS. IC mobile phase A (MPA; weak) was water, and mobile phase B (MPB; strong) was water containing 100 mM KOH. A THERMO […]™ DIONEX™ ICS-5000+ system included a THERMO FISHER […]™ IONPAC™ AS11 column ([…], 250×2 mm) with column compartment kept at 30° C. […]

[3] = assay type: in vivo, mice
Protocol: The mucus layer provides a critical contribution to the intestinal barrier by excluding bacteria from the intestinal lumen adjacent to the intestinal epithelium. […] Translocating bacteria included Enterococcus faecalis, Enterococcus gallinarum, Lactobacillus johnsonii, and BT (FIGS. 17D-17E).
Immunostaining and fluorescence in situ hybridization. […] Paraffin-embedded sections were dewaxed and hydrated. Sections were incubated with 1 μg Alexa Fluor 594-conjugated EUB338 (5′-[…]-3′; SEQ ID NO:1) for detection of all bacteria in 200 μL of hybridization buffer (750 mM NaCl, 100 mM Tris-HCl (pH 7.4), 5 mM EDTA, 0.01% BSA, 10% dextran sulfate) at 40° C. for 16 hours. Sections were rinsed in wash buffer (50 mM NaCl, 4 mM Tris-HCl (pH 7.4), 0.02 mM EDTA), washed at 45° ° C. for 20 min, stained with anti-Muc2 antibody [C3] (GTX100664, GeneTex) and counterstained with DAPI (Vector Laboratories). Photographs of sections were obtained using a fluorescent microscope (Nikon NIS Elements, Advanced Research version 4.20).
Microbiologic analysis of bacterial translocation. Mesenteric lymph nodes (MLNs) were harvested from mice and homogenized in PBS and cultured anaerobically on BHI plates containing yeast extract and 5% sterilized rumen fluid (THERMO FISHER […]™)) and Columbia blood agar plates (BD) for 4 days at 37° ° C. Colony-forming units (CFUs) were counted and adjusted per organ. […]

Structure (SMILES): C[C@@H](O)[C@H]1C(=O)N2C(C(=O)O)=C(S[C@@H]3CN[C@H](C(=O)N(C)C)C3)[C@H](C)[C@H]12 [meropenem]
- expression in murine BT of GH2 β-galactosidase, GH33 sialidase and GH29 α-L-fucosidase [1]: upregulated expression
- fecal levels of SCFAs [2]: significantly decreased; also recorded: reduced fecal levels of SCFAs, with particularly dramatic reductions in butyrate and valerate
- bacterial loads cultivated from MLNs ([3]; day 18): higher bacterial loads
- bacteria in mucus layer and lamina propria (16S FISH) ([3]; mice with GVHD): dissemination of bacteria into the mucus layer and lamina propria of the colon
